From patent US5215900A, “Microbial transformation of a substituted pyridinone using streptomyces sp. MA6804” (Merck & Co., Inc., priority 1991, dated 1993)
pIC50: −log10 of the molar value.

Biological target: T1, recombinant HIV reverse transcriptase (HIV RTR) (Human immunodeficiency virus type 1 group M subtype B, UniProt P04585)
T1 construct: recombinant HIV reverse transcriptase (HIV RTR)
Assay: Reverse Transcriptase Assay
Format: biochemical
Method: The assay measures the incorporation of tritiated deoxyguanosine monophosphate by recombinant HIV reverse transcriptase (HIV RTR) (or other RT) into acid-precipitable cDNA at the Km values of dGTP and poly r(C).oligo d(G)12-18.
Thirty uL of a reaction mixture containing equal volumes of: 500 mM Tris.HCl (pH 8.2), 300 mM MgCl2, 1200 mM KCl, 10 mM DTT, 400 μg/mL poly r(c).oligo d(G) [prepared by dissolving 1.5 mg (25 U) poly r(C).oligo d(G) in 1.5 ml sterile distilled H2 O and diluting to 400 μg/ml], 0.1 μuCi/μl [^3 H] dGTP, 160 μM dGTP, was added to 10 μl sterile distilled H2 O, 2.5 μl of potential inhibitor. Ten μL of 3.2 nM purified HIV RTR in tubes. The mixture was incubated at 37° C. for 45 minutes.
After incubation was complete, the tubes were cooled in ice for 5 minutes. Ice-cold 13% TCA containing 10 mM NaPPi (200 μl) was added and the mixture incubated on ice for 30 minutes. The precipitated cDNA was removed by filtration using presoaked glass filters [TCA, NaPPi ]. The precipitate was then washed with 1N HCl, 10 mM NaPPi. The filter discs were then counted in a scintillation counter.
Under these conditions [dGTP] and poly r(C).oligo d(G)12-18 each are approximately equal to the appropriate Km value. Approximately 5-6,000 cpm of [^3 H] GMP are incorporated into acid-precipitable material. The RT reaction is concentration-and time-dependent.

Cc1[nH]c(=O)c(NCc2nc3c(C)ccc(C)c3o2)cc1C(C)O (stereo not shown) [compound (I), 3-[(4,7-Dimethylbenzoxazol-2-yl)-methylamino]-5-(1-hydroxyethyl)-6-methyl-2(1H)-pyridinone]
pIC50: ~6.37
